Assay results as given in patent US20010038824A1, “Intranasal cyclic peptide formulations” (priority 2000, published 2001).
Numbered stars: 1 amine (or outer) side, 2 acyl side, 3 side chain; on linkers, the order of the positions; unused ones are H or OH. Bridge positions count the residues as written; N and C are the ends. Square brackets hold non-standard residues; d marks the D form. Peptide text beside a SMILES is read from it. * marks the point of attachment. ξ: configuration not given here. pTerphenylCO(4''-OnC5H11) = CCCCCOc1ccc(-c2ccc(-c3ccc(C(=O)*)cc3)cc2)cc1; Orn(4R-OH,5R-OH) = O=C([C@H](C[C@@H](O)[C@@H](O)N[*:3])N[*:1])[*:2]; X9 = O=C(C[C@@H](CCc1ccc(-c2ccc(OCCCc3ccccc3)cc2)cc1)N[*:2])[*:1]; hTyr(3S-OH,4S-OH) = N[C@H](C(=O)O)[C@H](O)[C@@H](O)c1ccc(O)cc1; X11 = CCCCCOc1ccc(-c2ccc(CC[C@H](CC(=O)[*:1])N[*:2])cc2)cc1; NαBis(2-aminoethyl)dOrn = NCCC[C@H](C(=O)*)N(CCN)CCN; X6 = NCCC[C@H](N)C(=O)N(CCCN)CCCC(N[*:1])C(=O)[*:2]; Pro(3S-OH,4S-Me) = C[C@H]1CN[C@H](C(=O)O)[C@H]1O; X7 = CCCCCCCCCCCCC(C)[C@H](CC(=O)[*:1])O[*:2]; X4 = CCCCCCCCCCCCC[C@H](CC(=O)[*:1])O[*:2]; X3 = NCCCN(CCCC(N[*:1])C(=O)[*:2])[*:3]; X2 = NC(=O)CC(O)C(N[*:1])C(=O)[*:2]; ξDopa = NC(Cc1ccc(O)c(O)c1)C(=O)O; Hyp = O=C(O)[C@@H]1C[C@@H](O)CN1; X1 = O=C(C1C(O)CCN1[*:1])[*:2]; ξY = NC(Cc1ccc(O)cc1)C(=O)O; ξHyp = O=C(O)C1CC(O)CN1; ξOrn = NCCCC(N)C(=O)O; ξT = CC(O)C(N)C(=O)O; ξV = CC(C)C(N)C(=O)O; ξA = CC(N)C(=O)O

Assays:
[1] = test system: Aspegillus fumigatus CF1003; experiment: In vitro antifungal activity, broth micro-dilution; type: cell-based; settings: YNB medium with 0.2% agarose, 1-2 days at 35° C.
Method: (§1) The in vitro antifungal activities of the representative Aerothricins of the present study were evaluated by determining the 50% inhibitory concentration (IC50), which was calculated as the lowest concentration of an antifungal to inhibit the growth of fungus to […] turbidity compared with the drug-free control growth spectrophotometrically.
(§2) The IC50 values were determined by the broth micro-dilution procedure based on NCCLS Approved Standard with the following minor modifications (National Committee for Clinical Laboratory Standards. (1997) Reference method for broth dilution antifungal susceptibility testing for yeasts. Approved standard. Document M27-A). Yeast Nitrogen Base (YNB; Difco Lab.) supplemented with 1% glucose and 0.25% K2HPO4 was used as testing medium for yeast, the same medium solidified with 0.2% low melting point agarose (BRL) was used for filamentous fungi. Inoculum size was 1-3×10^4 cells/ml, and incubation was performed for 1-2 days at 35° C.

Candida albicans CY1002 = experiment: In vitro antifungal activity, broth micro-dilution; type: cell-based; settings: YNB medium, 1-2 days at 35° C.
Method: as §1, §2

Fusarium solani CF1088 = experiment: In vitro antifungal activity, broth micro-dilution; type: cell-based; settings: YNB medium with 0.2% agarose, 1-2 days at 35° C.
Method: as §1, §2

[2] = Toxicity on administration to mice for 4 weeks; type: in vivo; settings: 5 mg/kg and 30 mg/kg to mice for 4 weeks
Candida albicans = experiment: Murine systemic candidiasis; type: in vivo, mice; settings: i.v., b.i.d×1 day followed by q.d.×2 days; survival on day 14
Method: Mice of a conventional immunocompetent mouse strain, Crj: CD-1 (ICR) were used for experimental infection models of systemic candidiasis. 4 weeks old Crj: CD-1 (ICR) mice were used for systemic candidiasis by injecting Candida albicans 5×10^6 conidia/mouse via the tail vein. Treatments were given twice (0, 4 h after infection) on the first day and once daily on following 2 days for systemic candidiasis (b.i.d×1 day followed by q.d.×2 days), intravenously (i.v.). 50% of effective dose (ED50) values was calculated from the survival number at each dose on day 14.

mouse hepatocytes = experiment: In vitro hepatotoxicity test; type: cell-based; settings: mouse hepatocyte monolayers, 1 day exposure, morphological evaluation
Text: The mouse hepatocytes were isolated by a collagenase digestion and cultured in microtest plates. The hepatocyte monolayers were exposed to the test Aerothricins in the culture system for 1 day. After the culture period, the hepatocytes were observed under a microscope and evaluated morphologically. The degree of the morphological alteration (degeneration) of the hepatocytes by the test Aerothricins were compared with WF11243 and LY303366.

Structure (SMILES) | In vitro Antifungal activity, IC50, Aspegillus fumigatus CF1003 [1] [µg/mL] | In vitro Antifungal activity, IC50, Candida albicans CY1002 (Candida albicans CY1002) [µg/mL] | In vitro Antifungal activity, IC50, Fusarium solani CF1088 (Fusarium solani CF1088) [µg/mL] | acute toxicity [2] | Solubility (Solubility) | In vivo antifungal activity against systemic candidiasis in mice, ED50 on day 14 (Candida albicans) [mg/kg] | Cytotoxicity to hepatocyte (mouse hepatocytes) [µg/mL]
CCCCCCCCCCCCC(C)[C@@H]1CC(=O)NC(C(C)O)C(=O)NC(C)C(=O)NC(Cc2ccc(O)cc2)C(=O)NC(C(C)C)C(=O)N2CC(O)CC2C(=O)NC(C(C)O)C(=O)NC(C(C)O)C(=O)N2CCC(O)C2C(=O)NC(C(O)CC(N)=O)C(=O)NCC(=O)NC(C(C)O)C(=O)NC(CCCN)C(=O)O1 (stereo partly shown) [Aerothricin 1] ([ξT][ξA][ξY][ξV][ξHyp][ξT][ξT][X1][X2]G[ξT][ξOrn]; linker N-C via X7) | 0.06 | 0.03 | 0.21 | no acute toxicity | Soluble: water, methanol, dimethylsulfoxide | – | –
CCCCCCCCCCCCC[C@@H]1CC(=O)NC(C(C)O)C(=O)NC(C)C(=O)NC(Cc2ccc(O)c(O)c2)C(=O)NC(C(C)C)C(=O)N2CC(O)CC2C(=O)NC(C(C)O)C(=O)NC(C(C)O)C(=O)N2CCC(O)C2C(=O)NC(C(O)CC(N)=O)C(=O)NCC(=O)NC(C(C)O)C(=O)NC(CCCN)C(=O)O1 (stereo partly shown) [Aerothricin 2] ([ξT][ξA][ξDopa][ξV][ξHyp][ξT][ξT][X1][X2]G[ξT][ξOrn]; linker N-C via X4) | – | – | – | – | Soluble: water, methanol, dimethylsulfoxide | – | –
CCCCCCCCCCCCC[C@@H]1CC(=O)NC(C(C)O)C(=O)NC(C)C(=O)NC(Cc2ccc(OC)cc2)C(=O)NC(C(C)C)C(=O)N2CC(O)CC2C(=O)NC(C(C)O)C(=O)NC(C(C)O)C(=O)N2CCC(O)C2C(=O)NC(C(O)CC(N)=O)C(=O)NCC(=O)NC(C(C)O)C(=O)NC(CCCN)C(=O)O1 (stereo partly shown) [Aerothricin 5] ([ξT][ξA][ξY](Me)[ξV][ξHyp][ξT][ξT][X1][X2]G[ξT][ξOrn]; linker N-C via X4) | 0.07 | 0.03 | 0.19 | – | – | 0.3 | –
CCCCCCCCCCOc1ccc(CC[C@@H]2CC(=O)NC(C(C)O)C(=O)NC(C)C(=O)NC(Cc3ccc(O)cc3)C(=O)NC(C(C)C)C(=O)N3CC(O)CC3C(=O)NC(C(C)O)C(=O)NC(C(C)O)C(=O)N3CCC(O)C3C(=O)NC(C(O)CC(N)=O)C(=O)NCC(=O)NC(C(C)O)C(=O)NC(CCCN)C(=O)N2)cc1 (stereo partly shown) [Aerothricin 36] | 0.05 | 0.08 | 1.00 | – | – | 0.6 | –
CCCCCOc1ccc(-c2ccc(CC[C@@H]3CC(=O)NC(C(C)O)C(=O)NC(C)C(=O)NC(Cc4ccc(O)cc4)C(=O)NC(C(C)C)C(=O)N4CC(O)CC4C(=O)NC(C(C)O)C(=O)NC(C(C)O)C(=O)N4CCC(O)C4C(=O)NC(C(O)CC(N)=O)C(=O)NCC(=O)NC(C(C)O)C(=O)NC(CCCN)C(=O)N3)cc2)cc1 (stereo partly shown) [Aerothricin 41] ([ξT][ξA][ξY][ξV][ξHyp][ξT][ξT][X1][X2]G[ξT][ξOrn]; linker N-C via X11) | 0.03 | 0.08 | 2.40 | – | – | 0.3 | –
CC1NC(=O)C(C(C)O)NC(=O)C[C@@H](CCc2ccc(-c3ccc(OCCCc4ccccc4)cc3)cc2)NC(=O)C(CCCN)NC(=O)C(C(C)O)NC(=O)CNC(=O)C(C(O)CC(N)=O)NC(=O)C2C(O)CCN2C(=O)C(C(C)O)NC(=O)C(C(C)O)NC(=O)C2CC(O)CN2C(=O)C(C(C)C)NC(=O)C(Cc2ccc(O)cc2)NC1=O (stereo partly shown) [Aerothricin 46] ([ξT][ξA][ξY][ξV][ξHyp][ξT][ξT][X1][X2]G[ξT][ξOrn]; linker N-C via X9) | 0.08 | 0.09 | 1.80 | – | – | 0.4 | –
CCCCCCCCCCCCC[C@@H]1CC(=O)NC(C(C)O)C(=O)NC(C)C(=O)NC(Cc2ccc(O)cc2)C(=O)NC(C(C)C)C(=O)N2CC(O)CC2C(=O)NC(C(C)O)C(=O)NC(C(C)O)C(=O)N2CCC(O)C2C(=O)NC(C(O)CC(N)=O)C(=O)NCC(=O)NC(C(C)O)C(=O)NC(CCCN(CCCN)C(=O)[C@@H](N)CCCN)C(=O)O1 (stereo partly shown) [Aerothricin 132] ([ξT][ξA][ξY][ξV][ξHyp][ξT][ξT][X1][X2]G[ξT][X6]; linker N-C via X4) | 0.10 | 0.30 | 0.19 | – | – | – | >100
CCCCCCCCCCCCC[C@@H]1CC(=O)NC(C(C)O)C(=O)NC(C)C(=O)NC(Cc2ccc(O)cc2)C(=O)NC(C(C)C)C(=O)N2CC(O)CC2C(=O)NC(C(C)O)C(=O)NC(C(C)O)C(=O)N2CCC(O)C2C(=O)NC(C(O)CC(N)=O)C(=O)NCC(=O)NC(C(C)O)C(=O)NC(CCCN(CCCN)C(=O)[C@@H](CCCN)N(CCN)CCN)C(=O)O1 (stereo partly shown) [Aerothricin 135] ([ξT][ξA][ξY][ξV][ξHyp][ξT][ξT][X1][X2]G[ξT][X3](NαBis(2-aminoethyl)dOrn); linker N-C via X4) | – | – | – | – | – | – | >100
CCCCCOc1ccc(-c2ccc(-c3ccc(C(=O)N[C@H]4C[C@@H](O)[C@@H](O)NC(=O)[C@@H]5[C@@H](O)[C@@H](C)CN5C(=O)[C@H]([C@@H](C)O)NC(=O)[C@H]([C@H](O)[C@@H](O)c5ccc(O)cc5)NC(=O)[C@@H]5C[C@@H](O)CN5C(=O)[C@H]([C@@H](C)O)NC4=O)cc3)cc2)cc1 [LY303366, reference compound] ({pTerphenylCO(4''-OnC5H11)}-[Orn(4R-OH,5R-OH)]T[Hyp][hTyr(3S-OH,4S-OH)]T[Pro(3S-OH,4S-Me)]; lactam 1-C) | – | – | – | – | – | – | 10
